Results from ChEMBL document CHEMBL4808194, “Design, synthesis and biological evaluation of novel 2,4-disubstituted quinazoline derivatives targeting H1975 cells via EGFR-PI3K signaling pathway” (Bioorg Med Chem, 2021).
Values belong to the compound of their own block, whether it stands above or below them.

Columns and labels:
Test in all cases: cells
Format in all cases: functional, cell-based
MGC-803 = conditions: Homo sapiens, MGC-803, 72 h
Description: Antiproliferative activity against human MGC-803 cells assessed as inhibition of cell growth incubated for 72 hrs by MTT assay

MDA-MB-231 = conditions: Homo sapiens, MDA-MB-231, 72 h
NCI-H1975 = conditions: Homo sapiens, NCI-H1975, 72 h
Description: Antiproliferative activity against human NCI-H1975 cells assessed as inhibition of cell growth incubated for 72 hrs by MTT assay

PC-3 = conditions: Homo sapiens, PC-3, 72 h
Description: Antiproliferative activity against human PC-3 cells assessed as inhibition of cell growth incubated for 72 hrs by MTT assay

SMILES: C=CC(=O)Nc1cccc(NC(=O)CSc2nc(Nc3ccc(C(F)(F)F)cc3)c3ccccc3n2)c1
- IC50 (MGC-803): 12.1 µM
- IC50 (MDA-MB-231): 11.5 µM
- IC50 (NCI-H1975): 12.9 µM
- IC50 (PC-3): 12.5 µM

SMILES: O=C(CSc1nc(Nc2ccccc2)c2ccccc2n1)Nc1cccc(Br)c1
- IC50 (MGC-803): 9.62 µM
- IC50 (MDA-MB-231): 17.5 µM
- IC50 (NCI-H1975): 10.1 µM
- IC50 (PC-3): 11.4 µM

SMILES: CCc1ccc(NC(=O)CSc2nc(Nc3ccccc3)c3ccccc3n2)cc1
- IC50 (MGC-803): > 50 µM
- IC50 (MDA-MB-231): 33.9 µM
- IC50 (NCI-H1975): 9.91 µM
- IC50 (PC-3): 17.9 µM

SMILES: O=C(CSc1nc(Nc2ccccc2)c2ccccc2n1)Nc1ccc(F)c(Cl)c1
- IC50 (MGC-803): 20.9 µM
- IC50 (MDA-MB-231): 21.6 µM
- IC50 (NCI-H1975): 9.39 µM
- IC50 (PC-3): 15.5 µM

SMILES: O=C(CSc1nc(Nc2ccccc2)c2ccccc2n1)Nc1ccc(Cl)c(Cl)c1
- IC50 (MGC-803): 37.9 µM
- IC50 (MDA-MB-231): 14.5 µM
- IC50 (NCI-H1975): 10.4 µM
- IC50 (PC-3): 12.1 µM

SMILES: COc1cccc(NC(=O)CSc2nc(Nc3ccccc3)c3ccccc3n2)c1
- IC50 (MGC-803): 10 µM
- IC50 (MDA-MB-231): 21.7 µM
- IC50 (NCI-H1975): 19.4 µM
- IC50 (PC-3): 11.6 µM

SMILES: O=C(CSc1nc(Nc2ccccc2)c2ccccc2n1)Nc1ccccc1Cl
- IC50 (MGC-803): 24.8 µM
- IC50 (MDA-MB-231): 24.4 µM
- IC50 (NCI-H1975): 9.61 µM
- IC50 (PC-3): 14.6 µM

SMILES: O=C(CSc1nc(Nc2ccccc2)c2ccccc2n1)Nc1ccccc1F
- IC50 (MGC-803): 10.7 µM
- IC50 (MDA-MB-231): > 50 µM
- IC50 (NCI-H1975): 9.35 µM
- IC50 (PC-3): 12.4 µM

SMILES: O=C(CSc1nc(Nc2ccccc2)c2ccccc2n1)Nc1ccc(Cl)cc1Cl
- IC50 (MGC-803): 12.3 µM
- IC50 (MDA-MB-231): 19.4 µM
- IC50 (NCI-H1975): 8.41 µM
- IC50 (PC-3): 9.11 µM

SMILES: CCc1cccc(NC(=O)CSc2nc(Nc3ccccc3)c3ccccc3n2)c1
- IC50 (MGC-803): 15.8 µM
- IC50 (MDA-MB-231): 12.4 µM
- IC50 (NCI-H1975): 12 µM
- IC50 (PC-3): 11 µM

SMILES: O=C(CSc1nc(Nc2ccccc2)c2ccccc2n1)Nc1ccc([N+](=O)[O-])cc1
- IC50 (MGC-803): > 50 µM
- IC50 (MDA-MB-231): 16.8 µM
- IC50 (NCI-H1975): 13 µM
- IC50 (PC-3): 25 µM

SMILES: C=CC(=O)Nc1cccc(NC(=O)CSc2nc(Nc3ccc(Cl)cc3Cl)c3ccccc3n2)c1
- IC50 (MGC-803): 12.1 µM
- IC50 (MDA-MB-231): 23.1 µM
- IC50 (NCI-H1975): 5.99 µM
- IC50 (PC-3): 25.7 µM

SMILES: O=C(CSc1nc(Nc2ccccc2)c2ccccc2n1)Nc1ccc(Cl)cc1
- IC50 (MGC-803): 40.4 µM
- IC50 (MDA-MB-231): 17.2 µM
- IC50 (NCI-H1975): 8.04 µM
- IC50 (PC-3): 12.8 µM

SMILES: O=C(CSc1nc(Nc2ccccc2)c2ccccc2n1)Nc1cccc([N+](=O)[O-])c1
- IC50 (MGC-803): 28.1 µM
- IC50 (MDA-MB-231): 33 µM
- IC50 (NCI-H1975): 17.9 µM
- IC50 (PC-3): 11.8 µM

SMILES: O=C(CSc1nc(Nc2ccccc2)c2ccccc2n1)Nc1ccccc1Br
- IC50 (MGC-803): 18.6 µM
- IC50 (MDA-MB-231): 14.1 µM
- IC50 (NCI-H1975): 10.3 µM
- IC50 (PC-3): 19.8 µM

SMILES: O=C(CSc1nc(Nc2ccccc2)c2ccccc2n1)Nc1cccc(F)c1
- IC50 (MGC-803): 12.7 µM
- IC50 (MDA-MB-231): > 50 µM
- IC50 (NCI-H1975): 6.79 µM
- IC50 (PC-3): 15.6 µM

SMILES: O=C(CSc1nc(Nc2ccccc2)c2ccccc2n1)Nc1ccc(C(F)(F)F)cc1
- IC50 (MGC-803): 8.67 µM
- IC50 (MDA-MB-231): 11.1 µM
- IC50 (NCI-H1975): 11.7 µM
- IC50 (PC-3): 10.4 µM

SMILES: O=C(CSc1nc(Nc2ccccc2)c2ccccc2n1)Nc1cccc(Cl)c1
- IC50 (MGC-803): 14.3 µM
- IC50 (MDA-MB-231): 16.5 µM
- IC50 (NCI-H1975): 8.46 µM
- IC50 (PC-3): 12.6 µM

SMILES: O=C(CSc1nc(Nc2ccccc2)c2ccccc2n1)Nc1ccc(Br)cc1
- IC50 (MGC-803): 19.3 µM
- IC50 (MDA-MB-231): 11.5 µM
- IC50 (NCI-H1975): 10.6 µM
- IC50 (PC-3): 8.45 µM

SMILES: O=C(CSc1nc(Nc2ccccc2)c2ccccc2n1)Nc1ccc(F)cc1
- IC50 (MGC-803): > 50 µM
- IC50 (MDA-MB-231): 34.1 µM
- IC50 (NCI-H1975): 16.5 µM
- IC50 (PC-3): 9.56 µM

SMILES: C=CC(=O)Nc1cccc(NC(=O)CSc2nc(Nc3cc(OC)c(OC)c(OC)c3)c3ccccc3n2)c1
- IC50 (MGC-803): > 50 µM
- IC50 (MDA-MB-231): > 50 µM
- IC50 (NCI-H1975): > 50 µM
- IC50 (PC-3): > 50 µM

Continued, values first:

- IC50 (MGC-803): 14.3 µM
- IC50 (MDA-MB-231): 10.3 µM
- IC50 (NCI-H1975): 7.58 µM
- IC50 (PC-3): 10.8 µM
SMILES: C=CC(=O)Nc1cccc(NC(=O)CSc2nc(Nc3ccc(Cl)cc3)c3ccccc3n2)c1

- IC50 (MGC-803): 8.29 µM
- IC50 (MDA-MB-231): 9.49 µM
- IC50 (NCI-H1975): 4.43 µM
- IC50 (PC-3): 8.24 µM
SMILES: C=CC(=O)Nc1cccc(NC(=O)CSc2nc(Nc3ccc(F)cc3)c3ccccc3n2)c1

- IC50 (MGC-803): 20.9 µM
- IC50 (MDA-MB-231): 16.8 µM
- IC50 (NCI-H1975): 12.1 µM
- IC50 (PC-3): 29.2 µM
SMILES: C=CC(=O)Nc1cccc(NC(=O)CSc2nc(Nc3cccc(C)c3)c3ccccc3n2)c1

- IC50 (MGC-803): 24.2 µM
- IC50 (MDA-MB-231): 12.9 µM
- IC50 (NCI-H1975): 7.94 µM
- IC50 (PC-3): 34.9 µM
SMILES: C=CC(=O)Nc1cccc(NC(=O)CSc2nc(Nc3cccc(OC)c3)c3ccccc3n2)c1

- IC50 (MGC-803): 20.7 µM
- IC50 (MDA-MB-231): 12.7 µM
- IC50 (NCI-H1975): 10 µM
- IC50 (PC-3): 14.4 µM
SMILES: C=CC(=O)Nc1cccc(NC(=O)CSc2nc(Nc3ccccc3Cl)c3ccccc3n2)c1

- IC50 (MGC-803): 12.8 µM
- IC50 (MDA-MB-231): 15.2 µM
- IC50 (NCI-H1975): 19.3 µM
- IC50 (PC-3): 17.1 µM
SMILES: C=CC(=O)Nc1cccc(NC(=O)CSc2nc(Nc3ccccc3Br)c3ccccc3n2)c1

- IC50 (MGC-803): > 50 µM
- IC50 (MDA-MB-231): 17.7 µM
- IC50 (NCI-H1975): 19.1 µM
- IC50 (PC-3): 27.6 µM
SMILES: C=CC(=O)Nc1cccc(NC(=O)CSc2nc(Nc3ccc(Cl)c(Cl)c3)c3ccccc3n2)c1

- IC50 (MGC-803): 11.9 µM
- IC50 (MDA-MB-231): 19.4 µM
- IC50 (NCI-H1975): 12.1 µM
- IC50 (PC-3): 15 µM
SMILES: C=CC(=O)Nc1cccc(NC(=O)CSc2nc(Nc3cccc(Br)c3)c3ccccc3n2)c1

- IC50 (MGC-803): > 50 µM
- IC50 (MDA-MB-231): > 50 µM
- IC50 (NCI-H1975): 22.6 µM
- IC50 (PC-3): 46.3 µM
SMILES: C=CC(=O)Nc1cccc(NC(=O)CSc2nc(Nc3cccc([N+](=O)[O-])c3)c3ccccc3n2)c1

- IC50 (MGC-803): 26.1 µM
- IC50 (MDA-MB-231): 18.7 µM
- IC50 (NCI-H1975): 6.58 µM
- IC50 (PC-3): 9.34 µM
SMILES: C=CC(=O)Nc1cccc(NC(=O)CSc2nc(Nc3ccccc3F)c3ccccc3n2)c1

- IC50 (MGC-803): 8.01 µM
- IC50 (MDA-MB-231): 14.4 µM
- IC50 (NCI-H1975): 8.27 µM
- IC50 (PC-3): 24.3 µM
SMILES: C=CC(=O)Nc1cccc(NC(=O)CSc2nc(Nc3ccc(CC)cc3)c3ccccc3n2)c1

- IC50 (MGC-803): 30.2 µM
- IC50 (MDA-MB-231): 20.4 µM
- IC50 (NCI-H1975): 9.92 µM
- IC50 (PC-3): 23.2 µM
SMILES: C=CC(=O)Nc1cccc(NC(=O)CSc2nc(Nc3ccccc3C)c3ccccc3n2)c1

- IC50 (MGC-803): 7.85 µM
- IC50 (MDA-MB-231): 10.6 µM
- IC50 (NCI-H1975): > 50 µM
- IC50 (PC-3): > 50 µM
SMILES: C=CC(=O)Nc1cccc(NC(=O)CSc2nc(Nc3ccc(F)c(Cl)c3)c3ccccc3n2)c1

- IC50 (MGC-803): 7.83 µM
- IC50 (MDA-MB-231): 16.3 µM
- IC50 (NCI-H1975): 9.46 µM
- IC50 (PC-3): 12.3 µM
SMILES: C=CC(=O)Nc1cccc(NC(=O)CSc2nc(Nc3cccc(Cl)c3)c3ccccc3n2)c1

- IC50 (MGC-803): 7.31 µM
- IC50 (MDA-MB-231): 10.2 µM
- IC50 (NCI-H1975): 8.12 µM
- IC50 (PC-3): 8.74 µM
SMILES: C=CC(=O)Nc1cccc(NC(=O)CSc2nc(Nc3ccccc3)c3ccccc3n2)c1

- IC50 (MGC-803): 11.5 µM
- IC50 (MDA-MB-231): 17.2 µM
- IC50 (NCI-H1975): 6.28 µM
- IC50 (PC-3): 12.4 µM
SMILES: C=CC(=O)Nc1cccc(NC(=O)CSc2nc(Nc3ccc(Br)cc3)c3ccccc3n2)c1
